A short description of series [1]: Deliquescence test (storage at 40° C. and 75% relative humidity). Format: physicochemical. Details: key: “Absence of deliquescence” refers to that no moisture absorption is observed on the sample surface; Slight: “slight deliquescence” refers to that moisture absorption is observed on the sample surface; Obvious: “obvious deliquescence” refers to that lubrication can be observed on the sample surface. As to the method:
• (1) Deliquescence test: The product A, crystal form I, and TAK-438 were stored at 40° C. and 75% relative humidity and observed for deliquescence for 30 days, with results recorded every 10 days as detailed in the table below.
(§1) “Absence of deliquescence” refers to that no moisture absorption is observed on the sample surface, “slight deliquescence” refers to that moisture absorption is observed on the sample surface, and “obvious deliquescence” refers to that lubrication can be observed on the sample surface. • (2) Thermal stability test: The product A and crystal form I were stored separately in open containers at 60° C. and tested for storage stability after 30 days (Day 31). Samples at initial and after 30 days of storage were tested for purity by HPLC with three replicates per sample and averaged and the results are presented in the following table.

Series [2] in a line: Thermal stability test (open containers at 60° C., purity by HPLC). The class given is physicochemical. As to conditions: mean of three replicates; for Purity (%), Day 31: HPLC purity after 30 days in open container at 60° C.; for Purity (%), Initial point: HPLC purity before storage. The method, then: The chromatographic conditions for HPLC purity testing of the product involved in the present invention are as follows:
Column: Ultimate XB-C18, column length: 150 mm, inner diameter: 4.6 mm, particle size: 5 μm
Flow rate: 1.2 mL/min; column temperature: 30° C.; wavelength: 210 nm; injection volume: 20 μL; solvent: acetonitrile-water (volume ratio 5:95)
Mobile phase A: acetonitrile-0.02 mol/L potassium dihydrogen phosphate (adjusted to pH 2.5 with phosphoric acid) (volume ratio 5:95)
Mobile phase B: methanol-acetonitrile-0.02 mol/L potassium dihydrogen phosphate (adjusted to pH 2.5 with phosphoric acid) (volume ratio 7:63:30)
The proportions of mobile phases A and B over time are as follows:
as §1

Another series addresses T1, H^+K^+-ATPase (Sus scrofa, UniProt P19156).
T1 construct: H^+K^+ATPase was extracted from porcine gastric mucosal microsomal vesicles by iPhase; tissue iPhase; host or cells: porcine gastric mucosa, microsomal vesicles
Nature of the series: Inhibition of H^+K^+-ATPase in microsomal vesicles of porcine gastric mucosa. Format: biochemical. As to conditions: pH 6.8, inorganic phosphorus readout. The text has this: Test method: H^+K^+-ATPase is an ATPase localized in gastric mucosal parietal cells and activated exclusively by K^+. In this experiment, H^+K^+-ATPase was extracted from the microsomal vesicles of porcine gastric mucosa, and ATPase could decompose ATP to generate ADP and inorganic phosphorus. The test article combined H^+K^+-ATPase and inhibited its activity. The level of ATPase activity was judged by measuring the amount of inorganic phosphorus, and the inhibitory effect of the test article was determined.
H^+K^+ATPase was extracted from porcine gastric mucosal microsomal vesicles by iPhase.
100 mM TRIS-HCL (PH 6.8): 100 μL 1M TRIS-HCL was added to 900 μl ddH2O and mixed well.
37.5 mM MgCl2: 50 mg MgCl2 was added to […] ddH2O and mixed well. 200 mM KCl: 500 mg KCl was added to 33.5 mL ddH2O and mixed well. 10 mM nigericin and valinomycin: 669 μl and 890 μL DMSO were added and mixed, dispensed into 1 μL nigericin and 5 μl valinomycin per tube, and stored at −20° C.
0.1 mg/ml microsomal vesicles: Protein concentrations were determined upon arrival and dispensed, stored at −80° C., and diluted with 5 mM TRIS-HCL for use.
Control compound: TAK438 was prepared as a 10 mM stock solution in DMSO and dispensed in 1 μL per tube.
Test compound: Product A and crystal form I were prepared as 10 mM stock solutions in ddH2O, and dispensed in 1 μL per tube.
With 20 μM (or 40 μM) as the highest concentration, the control compound and the test compound were diluted stepwise 3-fold with DMSO and ddH2O, respectively, to obtain the samples to be tested at 6 (or 7 or 8) concentration gradients.
Water bath at 37° C. for 30 min, 16.5 μL ATP added and mixed well, and water bath at 37° C. for 30 min
The chromogenic agent was prepared based on the instructions of *H^+K^+ ATP kit (Nanjing Jiancheng).
Per the enzymatic reaction volume of 150 μL, 45 μl of chromogen was added and mixed well, allowed to stand for 2 min, and the absorbance light signal at 660 nm was read by a microplate reader.
• 1) The inhibition rate was calculated according to the following formula: […]

The subject of series [3] is histamine-induced gastric acid secretion. Put plainly: Effect on histamine-induced gastric acid secretion in rats. Format: in vivo, SD rats. The text has this: Surgical modeling: Rats were anesthetized with intraperitoneal injection of ethyl carbamate at a dose of 1.5 g/kg. Rats under complete anesthesia were shaved from the neck and abdomen, and were intubated to maintain airway patency during surgery. The cardiac perfusion tube was orally inserted about 1 cm into the stomach of rats, and the other end of the cardiac perfusion tube was connected to a constant flow pump. A small incision was made below the xiphoid cartilage to find the duodenum, an incision was made transversely, the end of the collection tube of gastric pyloric samples was passed along the duodenum into the stomach about 1 cm through the wound, the duodenum was tightened with the collection tube of gastric pyloric samples with a suture, and the other end of the duodenal incision was tightened. Gastric lavage remnants were rapidly flushed along the esophago-cardia cannula with 150 mL of 37° C. prewarmed saline, outflowed through the collection tube of gastric pylorus samples, and the abdominal wall was sutured to the skin. Perfusion was continued with normal saline at a rate of 1 mL/min for 30 min, the other end of the col-lection tube for gastric pyloric samples was left in vitro, gastric juice samples were collected in conical flasks (one sample per 20 min of col-lection), and two basal gastric juice samples were collected, at which time basal gastric acid secretion reached a steady state.
Histamine-induced gastric acid secretion: Histamine was administered to rats by continuous tail vein injection with a microinjection pump at a dose of 20 μmol/kg/hr. Gastric acid was collected after 80 min, and after three time points, histamine secretion reached a steady state in rats, which was grouped according to the value of gastric acid secretion after histamine administration in rats, and candidate drugs or vehicle controls were administered based on the protocol. […] The details are as follows:
The required amount of Vonoprazan fumarate was weighed, added with an appropriate amount of 0.5% CMC-Na, stirred, sonicated to obtain a homogeneous suspension, and diluted sequentially to the corresponding concentration according to the concentration required by the protocol.
The required amount of HW-N2001 was weighed, added with appropriate physiological saline, and mixed thoroughly to obtain a clear solution, and the pH was adjusted to a range of 3.2 to 3.8. Based on the concentrations required by the protocol, the corresponding concentrations were successively diluted.
One hundred and eighteen of 130 SD rats in good health were selected and randomly divided into 8 groups according to body weight and base-line value after histamine administration after the end of the adaptation period, as detailed in the table below.
Collected gastric juice samples were taken and titrated with 0.01 N sodium hydroxide solution by a basic burette to PH7 as the endpoint, with the phenolphthalein indicator as a color indicator. The titration volume was measured and the acid secretion is calculated according to the following formula: acid secretion (μEq)=volume of NaOH (mL)×10^−3×0.01 mol/L×10^6.
Two basal gastric juice samples were collected, and an infusion extension tube prematurely inhaled with histamine was connected to the indwelling needle of tail vein in rats after basal gastric acid levels were stabilized. The syringe pump was opened, and histamine was calculated according to the dose of 20 μmol/kg/hr and the intravenous drip rate of each animal in the syringe pump was set. Gastric acid samples after histamine administration were collected after 80 minutes of continuous injection of histamine solution.

Where [4] appears, read: 0.375 mg/kg i.v., 60 min after administration.
Where [5] appears, read: 0.375 mg/kg i.v., 180 min after administration.
The mark [6] stands for this setting: 0.75 mg/kg i.v., 20 min after administration.
Setting [7] is: 1.5 mg/kg i.v., 20 min after administration.
Where [8] appears, read: 1.5 mg/kg i.v., 80 min after administration.
Where [9] appears, read: 1.5 mg/kg i.v., 180 min after administration.
[10] abbreviates: 2 mg/kg i.d., 60 min after administration.
[11] abbreviates: 2 mg/kg i.d., 180 min after administration.
[12] abbreviates: 4 mg/kg i.d., 40 min after administration.
Setting [13] is: 4 mg/kg i.d., 180 min after administration.

Counter-ions that a name gives are not always drawn.

T1 sequence (P19156 2-1034 limits assumed): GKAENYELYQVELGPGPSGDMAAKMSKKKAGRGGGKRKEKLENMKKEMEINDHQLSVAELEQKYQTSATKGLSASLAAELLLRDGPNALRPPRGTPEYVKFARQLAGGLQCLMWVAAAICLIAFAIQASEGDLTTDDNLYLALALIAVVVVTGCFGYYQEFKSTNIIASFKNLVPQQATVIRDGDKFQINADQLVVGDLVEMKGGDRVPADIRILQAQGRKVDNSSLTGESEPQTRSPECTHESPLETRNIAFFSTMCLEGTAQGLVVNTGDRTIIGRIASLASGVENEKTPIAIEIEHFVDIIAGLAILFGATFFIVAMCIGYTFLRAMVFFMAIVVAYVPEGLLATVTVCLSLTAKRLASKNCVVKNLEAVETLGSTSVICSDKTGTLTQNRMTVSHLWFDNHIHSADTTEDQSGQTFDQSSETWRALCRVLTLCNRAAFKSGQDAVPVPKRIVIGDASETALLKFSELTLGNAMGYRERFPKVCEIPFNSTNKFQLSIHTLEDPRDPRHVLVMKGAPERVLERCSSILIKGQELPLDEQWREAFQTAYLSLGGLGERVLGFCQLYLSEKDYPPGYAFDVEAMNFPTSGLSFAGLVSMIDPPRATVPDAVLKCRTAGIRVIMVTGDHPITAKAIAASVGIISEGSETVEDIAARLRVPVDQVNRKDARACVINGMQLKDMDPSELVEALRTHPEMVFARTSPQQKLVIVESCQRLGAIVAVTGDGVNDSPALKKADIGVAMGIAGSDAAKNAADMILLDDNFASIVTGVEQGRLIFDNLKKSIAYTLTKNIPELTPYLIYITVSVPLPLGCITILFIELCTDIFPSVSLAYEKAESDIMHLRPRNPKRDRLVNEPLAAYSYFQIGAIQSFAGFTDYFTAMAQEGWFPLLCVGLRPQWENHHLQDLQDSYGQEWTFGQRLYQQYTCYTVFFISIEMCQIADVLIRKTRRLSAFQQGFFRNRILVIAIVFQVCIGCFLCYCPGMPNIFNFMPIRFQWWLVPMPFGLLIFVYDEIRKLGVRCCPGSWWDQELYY
T1 sequence (P18434 whole entry partner): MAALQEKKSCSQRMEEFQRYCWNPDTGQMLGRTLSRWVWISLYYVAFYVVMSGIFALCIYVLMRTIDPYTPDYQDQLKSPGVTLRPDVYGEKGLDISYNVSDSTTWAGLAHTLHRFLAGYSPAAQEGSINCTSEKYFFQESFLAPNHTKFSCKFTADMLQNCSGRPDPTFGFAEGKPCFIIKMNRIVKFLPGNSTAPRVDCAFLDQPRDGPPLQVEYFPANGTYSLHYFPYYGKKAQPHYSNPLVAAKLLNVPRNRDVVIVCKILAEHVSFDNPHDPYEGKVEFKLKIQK

Turning to “5-(2-fluorophenyl)-N-methyl-1-(3-pyridylsulfonyl)-1H-pyrrole-3-methylamine pyroglutamate [Crystal form I]”, in series [1], the “Deliquescence, Day 10” value is “Absence of”. Further, in series [1], the “Deliquescence, Day 20” value was “Slight”. Further, the “Deliquescence, Day 30” value in series [1] is “Obvious”. The “Purity (%), Day 31” value in series [2] came out at 99.2%. The “Purity (%), Initial point” value in series [2] is on record as 99.8%. For the same molecule, the IC50 (as a rule, the midpoint of a concentration-inhibition curve) on H^+K^+-ATPase stood at 40.4 nM. Besides, the Gastric acid secretion in series [3] (setting [4]) was found to be 39.15±8.54 μEq HCl/20 min; in series [3] (setting [5]), 28.46±5.71 μEq HCl/20 min; in series [3] (setting [6]), 37.53±9.87 μEq HCl/20 min; in series [3] (setting [7]), 25.67±10.15 μEq HCl; in series [3] (setting [8]) it was 3.4±1.18 μEq HCl; in series [3] (setting [9]), 2.2±0.56 μEq HCl. The “Inhibition rate of gastric acid secretion” value (shortened to “Inhibition rate”) in series [3] (setting [4]) is 4.34%±1.28; in series [3] (setting [5]), 27.52%±1.43; in series [3] (setting [6]), 11.6%±0.82; in series [3] (0.75 mg/kg i.v., 180 min after administration) it was 73.68%±1.47; in series [3] (setting [7]), 33.28%±0; in series [3] (setting [8]), 89.64%±0. In series [3] (setting [9]), the “Inhibition rate” value was 93.56%±0.09. For the same molecule, in series [3] (0.75 and 1.5 mg/kg i.v.), the “Time after administration at which pharmacodynamic effect reached a stable state” value lay in the range of 60 to 100 min. Besides, the “Time after administration at which pharmacodynamic effect was gradually exerted” value in series [3] (0.75 and 1.5 mg/kg i.v.) is 20 min. In addition, the ID50 in series [3] (intravenous administration, 180 min after administration) worked out at 0.53 mg/kg.
In the case of “5-(2-fluorophenyl)-N-methyl-1-(3-pyridylsulfonyl)-1H-pyrrole-3-methylamine pyroglutamate [Product A]”, in series [1], the “Deliquescence, Day 10” value is on record as “Slight”; the “Deliquescence, Day 20” value is reported as “Obvious”; the “Deliquescence, Day 30” value is on record as “Obvious”. Besides, in series [2], the “Purity (%), Day 31” value was determined as 94.6% and the “Purity (%), Initial point” value is on record as 98.0%. Besides, the IC50 at H^+K^+-ATPase came out at 53.4 nM.
As to `CNCc1cc(-c2ccccc2F)n(S(=O)(=O)c2cccnc2)c1` [TAK-438, Vonoprazan fumarate], the “Deliquescence, Day 10” value in series [1] was “Absence of”. The “Deliquescence, Day 20” value in series [1] is “Absence of”. For the same molecule, the “Deliquescence, Day 30” value in series [1] was “Absence of”. The same molecule displayed a half-maximal inhibitory concentration (IC50) against H^+K^+-ATPase of 41.5 nM. Also, the “Gastric acid secretion after administration vs vehicle” value in series [3] (1 mg/kg i.d., rats) is “not significantly decreased”. Besides, the “Time after administration at which pharmacodynamic effect was gradually exerted” value in series [3] (2 mg/kg i.d.) was 60 min; in series [3] (4 mg/kg i.d.), 140 min. The Gastric acid secretion is on record as 33.21±15.63 μEq HCl/20 min in series [3] (setting [10]), 16.21±14.46 μEq HCl/20 min in series [3] (setting [11]), 33.18±11.15 μEq HCl/20 min in series [3] (setting [12]) and 4.41±4.02 μEq HCl/20 min in series [3] (setting [13]). Also, the “Inhibition rate” value in series [3] (setting [10]) was 13.71%±2.12; in series [3] (setting [11]), 57.48%±2.27; in series [3] (setting [12]), 12.47%±1.13; in series [3] (setting [13]), 87.03%±0.81. Also, the “Time at which strongest efficacy was reached” value in series [3] (duodenal administration) was 180 min. The same molecule yielded an ID50 in series [3] (duodenal administration, 180 min) of 1.87 mg/kg.
